According to US8975280B2, “Deoxynojirimycin and D-arabinitol analogs and methods of using” (The Chancellor, Masters and Scholars of The University of …, priority 2006, dated 2015):

Molecular target: T1, glucosidase I (Homo sapiens, UniProt Q13724)
T1 construct: endogenous in cells; host or cells: HL60 cells
T1 sequence (Q13724 1-837): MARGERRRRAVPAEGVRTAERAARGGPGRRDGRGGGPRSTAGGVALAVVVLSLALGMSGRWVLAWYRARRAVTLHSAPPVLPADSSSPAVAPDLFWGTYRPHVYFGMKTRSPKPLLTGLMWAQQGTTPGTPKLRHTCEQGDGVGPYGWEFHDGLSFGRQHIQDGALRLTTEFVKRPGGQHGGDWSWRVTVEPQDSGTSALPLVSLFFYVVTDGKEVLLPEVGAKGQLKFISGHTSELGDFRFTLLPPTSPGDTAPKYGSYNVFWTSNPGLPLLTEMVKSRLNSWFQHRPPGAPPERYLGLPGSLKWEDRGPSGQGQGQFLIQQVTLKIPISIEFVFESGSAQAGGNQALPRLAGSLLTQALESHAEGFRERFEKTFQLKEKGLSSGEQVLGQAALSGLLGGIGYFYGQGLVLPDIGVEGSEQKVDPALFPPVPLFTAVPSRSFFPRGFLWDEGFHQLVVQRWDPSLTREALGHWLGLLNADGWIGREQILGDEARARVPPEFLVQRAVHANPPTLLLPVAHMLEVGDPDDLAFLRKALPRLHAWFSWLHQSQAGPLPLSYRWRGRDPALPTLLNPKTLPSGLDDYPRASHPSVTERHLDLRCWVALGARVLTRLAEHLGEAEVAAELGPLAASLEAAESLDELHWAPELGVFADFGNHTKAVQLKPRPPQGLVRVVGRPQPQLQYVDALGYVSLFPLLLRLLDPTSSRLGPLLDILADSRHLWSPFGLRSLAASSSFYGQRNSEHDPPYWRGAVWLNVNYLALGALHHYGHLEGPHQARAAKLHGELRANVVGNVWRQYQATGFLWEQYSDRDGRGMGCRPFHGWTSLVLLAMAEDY
Assay: Inhibition of glucosidase I in HL60 cells, free oligosaccharide (G3M5N) analysis by NP-HPLC
Format: cell-based
Parameters: concentration of maximal glucosidase I inhibition in cells: unit not given here
Conditions: 24 h
Method: The effect of an ER-glucosidase inhibitor on cells was evaluated using an assay method by modifying known methods. (H. R. Mellor et al., Cellular Effects of Deoxynojirimycin Analogues: Inhibition of N-Linked Oligosaccharide Processing and Generation of Free Glucosylated Oligosaccharides, 381 Biochem. J. 867-875 (2004). The detection of free oligosaccharides following imino sugar treatment to generate misfolded protein that is degraded in the cytosol is an accurate measure of cell ER entry and inhibition of glycoprotein processing of α-glucosidases I and II by imino sugars.
Cells were cultured to high density (×10^7 cells/ml) prior to growth in fresh medium containing NB-DNJ at varying concentrations. The cells were seeded at a lower density so as to achieve a high density at the end of the incubation period. […] The conditions for extraction of FOS were determined to maximize recovery of FOS. […]
ConA-Sepharose purified 2-AA-labeled oligosaccharides were separated by NP-HPLC using a 4.6×250 mm TSKgel Amide-80 column (Anachem, Luton, UK) with slight modifications to known methods. (D. C. Neville, et al.) The chromatography system consisted of a Waters Alliance 2695 separations module and an in-line Waters 474 fluorescence detector set at an excitation wavelength of 360 nm and emission wavelength of 425 nm. […]

concentration of maximal glucosidase I inhibition in cells (G3M5N): 50-100 ρM
more potent at inhibiting glucosidase I than NB-DNJ in cells (estimation of G3M5N): 20-50 times
SMILES: [N-]=[N+]=Nc1ccc(NCCCCCCN2C[C@H](O)[C@@H](O)[C@H](O)[C@H]2CO)c([N+](=O)[O-])c1 [NAP-DNJ, N—(N′-{4′azido-2′-nitrophenyl)-6-aminohexyl)-deoxynojirimycin]
